The values that follow come from patent US8022043B2, “Ceramide derivatives as modulators of immunity and autoimmunity” (Albert Einstein College of Medicine of Yeshiva University, priority 2004, dated 2011).

The subject of experiment [1] is Bulk splenocytes from C57BL/6 mice. Put plainly: Splenocyte proliferation assay (3H-thymidine incorporation). It counts as cell-based. To be noted: for EC50: concentration giving 50% maximal response in proliferation of splenocyte cultures, 3H-thymidine incorporation. The protocol:
The results were obtained using a splenocyte proliferation assay according to the following procedure: Bulk splenocytes from C57BL/6 mice were plated at 300,000 per well in 96-well flat-bottom tissue culture plates with the indicated ceramide-like glycolipid diluted in complete medium to the concentrations shown. After 48 h at 37° C., the plate wells were pulsed with 20 microliters of medium containing 50 microCi/ml ^3H-thymidine and incubated for a further 18 h. Cell proliferation was estimated by harvesting pulsed cells onto 96-well filtermats and scintillation counting on a 1450 Microbeta Trilux instrument (Wallac/Perkin Elmer, Boston, Mass.).

Experiment [2] has the same test system. As to the kind of experiment: Cytokine response of splenocyte cultures (IL-4 and IFNγ ELISA). It counts as cell-based. Further details: IL-4 levels compared with DB01-1: dose or concentration left out as unconfirmed. To be noted: in vitro splenocyte cultures. (In general: ELISA stands for enzyme-linked immunosorbent assay.)
In another experiment the test system is splenocyte cultures. As to the kind of experiment: Splenocyte cultures (DB03-6). It counts as cell-based.
In experiment [3] the test system is splenocytes from NZB/W F1 mice. Put plainly: Cytokine induction in vitro with splenocytes from NZB/W F1 mice. It counts as cell-based.
The test system of another experiment is NK T cells. Put plainly: NK T cell activation screens (Example, FIG. 5 and Table 1). It counts as cell-based. The following applies: see Example. The source says: Using these methods, we produced more than 60 novel amino substituted analogues of KRN7000. These were screened in a functional assay that assessed the ability of the compounds to activate NK T cell hybridomas in the presence of various types of cells expressing CD1d, or in the presence of recombinant CD1d proteins bound to the tissue culture plate surface (FIG. 5).

A further experiment relates to NK T hybridoma DN32.D3. Put plainly: Murine NK T cell hybridoma stimulation assay (IL-2 release), HeLa.hCD1d as APC. It counts as cell-based, mouse. The following applies: presented by HeLa cells. The protocol: The ability of the compounds to activate NK T cell hybridomas in the presence of various types of cells expressing CD1d reported in FIG. 5A was determined using a murine NK T cell hybridoma stimulation assay. CD1d-transfected RMA-S cells were plated at 50,000 cells/well in flat-bottom tissue culture plates in 100 microliters complete medium containing varying concentrations of ceramide-like glycolipids for 6 h at 37° C. The plates were then centrifuged (430 g, 3 min), and cells washed with PBS three times. Fifty thousand NKT hybridoma cells (clone DN3A4.1-2) were then added in 100 microliters of medium for a 12 h stimulation. Cell-free supernatants were collected at the end of incubation and assayed for IL-2 by standard capture ELISA. Relative potencies of the ceramide-like glycolipids were calculated from the reciprocal effective concentrations at half-maximal response (1/EC50), and expressed as units by normalization to the observed potency for KRN7000.
IL-2 production by NK T hybridoma DN32D3 in response to eight selected ceramide-like glycolipids, was determined using three different cell types as antigen presenting cells. RMA-S.mCD1d are a mouse lymphoma line that has been transfected to express murine CD1d. JAWS II is a mouse dendritic cell line that naturally expresses mouse CD1d. HeLa.hCD1d is a human cervical carcinoma cell line that has been transfected to express human CD1d. […]

In experiment [4] the test system is Bulk splenocytes from C57BL/6 mice. As to the kind of experiment: Cytokine response of splenocyte cultures (IL-4 and IFNγ ELISA). It counts as cell-based. To be noted: 500 nM glycolipid, 48 hours; for Cytokine Response IFNγ / Cytokine Response IL-4: culture supernatant ELISA, ND = below the reliable level for detection. The protocol:
The cytokine response reported in Table 1 and FIG. 5C was determined by the following procedure: Bulk splenocytes from C57BL/6 mice were plated at 300,000 per well in 96-well flat-bottom tissue culture plates with ceramide-like glycolipids diluted to a concentration of 500 nM in 200 microliters complete medium. After 48 h at 37° C., 150 microliters of supernatant was removed for cytokine measurements. Supernatant levels of IL-4, and IFNγ were measured by standard enzyme-linked immunosorbent assay (ELISA), using capture and biotinylated detection antibody pairs (clones 11B11/BVD6-24G2-biotin, and R4-6A2/XMG1.2-biotin, respectively, from BD Pharmingen, San Diego, Calif.). […] Standards for IL-4 and IFNγ were from Peprotech (Rocky Hill, N.J.).

In the case of `CCCCCCCCCCCCCCCCCCCCCCCC(=O)N[C@@H](COC1OC(CO)C(O)C(O)C1O)[C@H](O)[C@H](O)CCCCCCCCCCCCCC` (stereo partly shown) [DB02-1], the CD1d-dependent proliferation result in experiment [1] (FIG. 5D) is “stimulation of CD1d-dependent proliferation”. Further, in experiment [2], the “IL-4 levels compared with DB01-1” value is listed as “nearly equivalent”. Moreover, in experiment [2] (all concentrations), the “IFNγ levels compared with DB01-1” value is listed as “markedly lower”.

As for `CC/C=C\C/C=C\C/C=C\C/C=C\C/C=C\CCCC(=O)N[C@@H](COC1OC(CO)C(O)C(O)C1O)[C@H](O)[C@H](O)CCCCCCCCCCCCCC` (stereo partly shown) [DB03-6], in the experiment on splenocyte cultures, the IL-2 induction entry is given as “minimal IL-2 induction”, the “IL-4 relative to IFNγ” value is “apparent enhancement of IL-4 relative to IFNγ” and the agonist activity result is given as “agonist”.

Take `CCCCCCCCCCCCCC[C@@H](O)[C@@H](O)[C@H](COC1OC(CO)C(O)C(O)C1O)NC(=O)Cc1ccc(OC)c(OC)c1` (stereo partly shown) [YTC03-24]: the “IL-4 induction relative to IFNγ” value in experiment [3] was “enhanced IL-4 induction relative to IFNγ”.

Take `CCCCCCCCCCCCCC[C@@H](O)[C@@H](O)[C@H](COC1OC(CO)C(O)C(O)C1O)NC(=O)CCCCCC` (stereo partly shown) [YTC03-25]: the “IL-4 induction relative to IFNγ” value in experiment [3] is on record as “enhanced IL-4 induction relative to IFNγ”. Also, the effectiveness of compound entry in the experiment with NK T cells is reported as “Particularly effective”.

In the case of `CCCCCCCCCCCCCC[C@@H](O)[C@@H](O)[C@H](COC1OC(CO)C(O)C(O)C1O)NC(=O)Cc1ccc(F)cc1` (stereo partly shown) [YTC03-30], the “potency greater than KRN7000” value in the experiment on NK T hybridoma DN32.D3 is on record as “at least 100 fold”.

`CCCCCCCCCCCCCC[C@@H](O)[C@@H](O)[C@H](CO[C@H]1O[C@H](CO)[C@H](O)[C@H](O)[C@H]1O)NC(=O)Cc1cccc2ccccc12` [YTCO3-56]: in experiment [4], the “IL-4/IFNγ ratio divided by this ratio for DB01-1 (value in parentheses)” value (“IL-4/IFNγ ratio divided by this ratio” for short) is listed as 0.7, the “ratio IL-4/IFNγ” value came to 0.019, the “Cytokine Response IFNγ” value was 11.79 ng/mL and the “Cytokine Response IL-4” value is 0.22 ng/mL. Also, in experiment [1], the EC50 came to 11.4 nM. Also, the effectiveness of compound entry in the experiment on NK T cells is recorded as “Particularly effective”.

Regarding `CCCCCCCCCCCCCC[C@@H](O)[C@@H](O)[C@H](CO[C@H]1O[C@H](CO)[C@H](O)[C@H](O)[C@H]1O)NC(=O)Cc1ccc(OCC)cc1` [YTCO3-59], in experiment [4], the “IL-4/IFNγ ratio divided by this ratio” value is recorded as 309.4, the “ratio IL-4/IFNγ” value was 8.045, the “Cytokine Response IFNγ” value worked out at 0.22 ng/mL and the “Cytokine Response IL-4” value was found to be 1.77 ng/mL. The compound further displayed an EC50 in experiment [1] of 0.1 nM. The effectiveness of compound entry in the experiment with NK T cells is “Particularly effective”.

For the compound `CCCCCCCCCCCCCC[C@@H](O)[C@@H](O)[C@H](CO[C@H]1O[C@H](CO)[C@H](O)[C@H](O)[C@H]1O)NC(=O)C(c1ccccc1)C(C)CC` (stereo partly shown) [YTCO3-60], in experiment [4], the “IL-4/IFNγ ratio divided by this ratio” value stood at 0.8, the “ratio IL-4/IFNγ” value amounted to 0.022, the “Cytokine Response IFNγ” value was 8.18 ng/mL and the “Cytokine Response IL-4” value stood at 0.18 ng/mL. The EC50 in experiment [1] was determined as 10.9 nM. The effectiveness of compound entry in the experiment with NK T cells is “Particularly effective”.

A word on the EC50: it is the concentration needed to bring the measured effect to its halfway point.
